Experimental findings from ChEMBL document CHEMBL1137685, “A three-step synthesis from rebeccamycin of an efficient checkpoint kinase 1 inhibitor” (Eur J Med Chem, 2009) are described below.

In assay [1] the target is T1, Serine/threonine-protein kinase Chk1 (Homo sapiens, UniProt O14757).
T1 sequence (O14757 whole entry): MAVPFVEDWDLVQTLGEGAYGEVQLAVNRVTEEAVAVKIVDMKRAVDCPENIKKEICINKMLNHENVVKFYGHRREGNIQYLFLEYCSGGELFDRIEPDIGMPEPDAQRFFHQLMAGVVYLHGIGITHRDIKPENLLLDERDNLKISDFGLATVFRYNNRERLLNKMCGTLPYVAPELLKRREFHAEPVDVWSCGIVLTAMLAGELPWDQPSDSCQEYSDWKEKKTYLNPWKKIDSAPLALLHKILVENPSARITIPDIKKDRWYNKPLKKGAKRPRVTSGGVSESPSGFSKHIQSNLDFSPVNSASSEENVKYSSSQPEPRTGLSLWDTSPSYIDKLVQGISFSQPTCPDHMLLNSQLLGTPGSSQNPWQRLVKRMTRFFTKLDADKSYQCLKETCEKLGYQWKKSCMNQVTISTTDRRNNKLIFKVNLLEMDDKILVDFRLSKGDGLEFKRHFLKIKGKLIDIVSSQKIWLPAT
The assay is described as follows: Inhibition of GST-tagged human full-length CHK1 expressed in Sf9 cells.

The target of assay [2] is Proto-oncogene tyrosine-protein kinase Src (Homo sapiens) (UniProt P12931). The assay is described as follows: Inhibition of Src at 1 uM.
Proto-oncogene tyrosine-protein kinase Src (Homo sapiens), sequence (P12931 2-536 limits assumed): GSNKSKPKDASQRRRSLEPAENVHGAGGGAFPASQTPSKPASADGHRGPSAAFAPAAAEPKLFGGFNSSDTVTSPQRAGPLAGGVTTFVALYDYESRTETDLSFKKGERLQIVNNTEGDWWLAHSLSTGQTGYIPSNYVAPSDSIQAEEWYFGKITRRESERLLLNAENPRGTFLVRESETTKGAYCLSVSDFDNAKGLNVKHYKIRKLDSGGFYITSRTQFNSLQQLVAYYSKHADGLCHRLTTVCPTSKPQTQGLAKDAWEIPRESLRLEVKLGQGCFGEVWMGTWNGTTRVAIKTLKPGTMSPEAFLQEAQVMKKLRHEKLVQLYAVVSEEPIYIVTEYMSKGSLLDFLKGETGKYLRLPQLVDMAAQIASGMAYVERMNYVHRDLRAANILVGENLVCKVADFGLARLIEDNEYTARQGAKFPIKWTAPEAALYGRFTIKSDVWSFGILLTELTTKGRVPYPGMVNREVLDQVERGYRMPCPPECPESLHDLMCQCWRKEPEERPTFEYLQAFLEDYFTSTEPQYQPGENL
Assay [3] has as its target T2, Serine/threonine-protein kinase Chk1 (Homo sapiens) (UniProt O14757).
T2 sequence (whole entry): T1 sequence (O14757 whole entry)
The settings on record: Sf9, 0.1 uM.
Description: Inhibition of GST-tagged human full-length CHK1 expressed in Sf9 cells at 0.1 uM

On to `CO[C@H]1[C@H](O)[C@H]2[C@@H](O[C@@H]1CN)n1c3ccccc3c3c4c(c5c6ccccc6n2c5c31)C(=O)NC4=O`, for which the half-inhibitory concentration (IC50) (as a rule, the concentration needed to halve the response being measured) in assay [1] worked out at 2.8 nM. In addition, the inhibition (commonly the relative decrease from the control value, in per cent) in assay [2] was determined as 35%; in assay [3] it was 90%.
